For orientation: DC50 means the midpoint of the concentration-degradation curve.

For the assay, the system named is androgen receptor (AR). Kind of assay: AR ELISA assay (androgen receptor degradation). Format: cell-based. Particulars: LNCaP and/or VCaP cells, 5 hours drug treatment; for AR Dmax: % degraded. As to the method: 5. AR ELISA Assay Protocol
Compounds were evaluated in this assay in LNCaP and/or VCaP cells utilizing similar protocols. The protocols used with VCaP cells are described below. The androgen receptor ELISA assay was performed using PathScan AR Sandwich ELISA (Cell Signaling Catalog #12850) according to the following assay steps:
VCaP cells were seeded at 40,000 cells/well at a volume of 100 µL/well in VCaP assay medium [Phenol red free RPMI (Gibco Cat #11835-030); 5% Charcoal Stripped (Dextran treated) FBS (Omega Scientific, Cat #FB-04); 1% penstrep (Life Technologies, Gibco Cat #: 10378-016)] in Corning 3904 plates. The cells were incubated for a minimum of 3 days. Cells were dosed with PROTACs diluted in 0.01% DMSO and the drug treatment was allowed for 5 hours.
AR ELISA (Cell Signaling) was performed as follows. 1×Cell Signaling Cell lysis buffer was made (Catalogue #9803; comes with the kit). Media from the treated wells is aspirated, and 100 μL 1×cell lysis buffer/well is added. The cells were placed on a shaker for 10 minutes at 4° C. Twenty microliters of lysate was transferred to 100 μl of Diluent in ELISA plate ([…]-0.075 μg/ml). The lysate-diluent mixture was shaken for 30 minutes at 37° C. Allow mouse AR antibody, anti-mouse antibody, TMB, and STOP solution to come to room temperature. The 1×ELISA buffer included in kit was made and loaded in the reservoir. Media from the plates was discarded, the ELISA plate tapped hard on paper towel, and washed 4×200 μl ELISA wash buffer using a plate washer.
One-hundred (100) μL/well of mouse AR detection Ab was added; the plates were covered and shaken at 37° C. for 1 hour; media was discarded from the plates, the plates were tapped on a paper towel, washed 4× with 200 μL ELISA wash buffer with a plate washer.
One-hundred (100) μL/well of anti-mouse—HRP conjugated Ab (comes with the kit) was added; the plates were covered and shaken at 37° C. for 30 minutes; the TMB reagent was allowed to come to room temperature; the media was discard from the plate, the plates were tapped on paper towel, washed 4× with 200 μL of ELISA wash buffer; the plates were tapped the plates on paper towel. One-hundred (100) μL of TMB was added and the plates shaken for 2 minutes—while watching for color development. One-hundred (100) μL Stop solution was added when light blue color developed. Plates were shaken and read at 450 nm.

A value given as a limit tells only on which side of the number the result lay.

On to `CC1(C)[C@H](NC(=O)c2ccc(N3CCC(CN4CCN(c5ccc6c(c5)C(=O)N(c5ccc(O)[nH]c5=O)C6=O)CC4)CC3)cc2)C(C)(C)[C@H]1Oc1ccc(C#N)c(Cl)c1` [PROTAC-45, N-((1r,3r)-3-(3-chloro-4-cyanophenoxy)-2,2,4,4-tetramethylcyclobutyl)-4-(4-((4-(2-(6-hydroxy-2-oxo-1,2-dihydropyridin-3-yl)-1,3-dioxoisoindolin-5-yl)piperazin-1-yl)methyl)piperidin-1-yl)benzamide], for which the “AR Dmax” value is on record as “C (C <= 50)” and the DC50 is not below 100 nM.
Taken in the same sequence, the figures for `CC1(C)[C@H](NC(=O)c2ccc(N3CCN(CCOCCOCc4cc5ccccc5c(=O)n4C4CCC(=O)NC4=O)CC3)nc2)C(C)(C)[C@H]1Oc1ccc(C#N)c(Cl)c1` (some centres unmarked) [PROTAC-46, N-((1r,3r)-3-(3-chloro-4-cyanophenoxy)-2,2,4,4-tetramethylcyclobutyl)-6-(4-(2-(2-((2-(2,6-dioxopiperidin-3-yl)-1-oxo-1,2-dihydroisoquinolin-3-yl)methoxy)ethoxy)ethyl)piperazin-1-yl)nicotinamide] were “C (C <= 50)” and not below 100 nM.
On the same counts, the results for `CC1(C)[C@H](NC(=O)c2ccc(N3CCN(CCCCCOc4ccc5ncc(-n6ccc(=O)[nH]c6=O)cc5c4)CC3)nc2)C(C)(C)[C@H]1Oc1ccc(C#N)c(Cl)c1` [PROTAC-47, N-((1r,3r)-3-(3-chloro-4-cyanophenoxy)-2,2,4,4-tetramethylcyclobutyl)-6-(4-(5-((3-(2,4-dioxo-3,4-dihydropyrimidin-1(2H)-yl)quinolin-6-yl)oxy)pentyl)piperazin-1-yl)nicotinamide] are “C (C <= 50)” and 1 to 10 nM.
Taken in the same sequence, the figures for `CC1(C)[C@H](NC(=O)c2ccc(N3CCN(CCCOc4ccc(C(=O)NC5CCC(=O)NC5=O)nc4)CC3)nc2)C(C)(C)[C@H]1Oc1ccc(C#N)c(Cl)c1` (some centres unmarked) [PROTAC-50, 5-(3-(4-(5-(((1r,3r)-3-(3-chloro-4-cyanophenoxy)-2,2,4,4-tetramethylcyclobutyl)carbamoyl)pyridin-2-yl)piperazin-1-yl)propoxy)-N-(2,6-dioxopiperidin-3-yl)picolinamide] were “B (50 < B <= 75)” and less than 1 nM.
Regarding `CC1(C)[C@H](NC(=O)c2ccc(N3CCC(CN4CCN(c5ccc(C(=O)NC6CCC(=O)NC6=O)nc5)CC4)CC3)nc2)C(C)(C)[C@H]1Oc1ccc(C#N)c(Cl)c1` (some centres unmarked) [PROTAC-53, 5-(4-((1-(5-(((1r,3r)-3-(3-chloro-4-cyanophenoxy)-2,2,4,4-tetramethylcyclobutyl)carbamoyl)pyridin-2-yl)piperidin-4-yl)methyl)piperazin-1-yl)-N-(2,6-dioxopiperidin-3-yl)picolinamide], the “AR Dmax” value is given as “A (A > 75)” and the DC50 was less than 1 nM.
On the same counts, the results for `N#Cc1ccc(O[C@H]2CC[C@H](NC(=O)c3ccc(N4CCC(CN5CCN(c6cc(C(=O)O)c(C(=O)NC7CCC(=O)NC7=O)cc6F)CC5)CC4)nn3)CC2)cc1Cl` (some centres unmarked) [PROTAC-57, 5-(4-((1-(6-(((1r,4r)-4-(3-chloro-4-cyanophenoxy)cyclohexyl)carbamoyl)pyridazin-3-yl)piperidin-4-yl)methyl)piperazin-1-yl)-2-((2,6-dioxopiperidin-3-yl)carbamoyl)-4-fluorobenzoic acid] are “A (A > 75)” and 1 to 10 nM.
On the same counts, the results for `N#Cc1ccc(O[C@H]2CC[C@H](NC(=O)c3ccc(N4CCC(CN5CCN(c6cc(C(=O)NC7CCC(=O)NC7=O)c(C(=O)O)cc6F)CC5)CC4)nn3)CC2)cc1Cl` (some centres unmarked) [PROTAC-58, 4-(4-((1-(6-(((1r,4r)-4-(3-chloro-4-cyanophenoxy)cyclohexyl)carbamoyl)pyridazin-3-yl)piperidin-4-yl)methyl)piperazin-1-yl)-2-((2,6-dioxopiperidin-3-yl)carbamoyl)-5-fluorobenzoic acid] are “B (50 < B <= 75)” and 10 to 100 nM.
Taken in the same sequence, the figures for `N#Cc1ccc(O[C@H]2CC[C@H](NC(=O)c3ccc(N4CCC(CN5CCN(c6ccc(C(=O)NC7CCC(=O)NC7=O)cc6)CC5)CC4)nn3)CC2)cc1Cl` (some centres unmarked) [PROTAC-59, N-((1r,4r)-4-(3-chloro-4-cyanophenoxy)cyclohexyl)-6-(4-((4-(4-((2,6-dioxopiperidin-3-yl)carbamoyl)phenyl)piperazin-1-yl)methyl)piperidin-1-yl)pyridazine-3-carboxamide] were “A (A > 75)” and less than 1 nM.
In the case of `CC1(C)[C@H](NC(=O)c2ccc(CCCCN3CCN(c4cnn(C5CCC(=O)NC5=O)c(=O)c4)CC3)nc2)C(C)(C)[C@H]1Oc1ccc(C#N)c(Cl)c1` (some centres unmarked) [PROTAC-61, N-((1r,3r)-3-(3-chloro-4-cyanophenoxy)-2,2,4,4-tetramethylcyclobutyl)-6-(4-(4-(1-(2,6-dioxopiperidin-3-yl)-6-oxo-1,6-dihydropyridazin-4-yl)piperazin-1-yl)butyl)nicotinamide], the “AR Dmax” value was “B (50 < B <= 75)” and the DC50 is less than 1 nM.
With `CC1(C)[C@H](NC(=O)c2ccc(N3CCC(CN4CCN(c5ccc6c(c5)C(=O)N(C5CC(=O)NC5=O)C6=O)CC4)CC3)cc2)C(C)(C)[C@H]1Oc1ccc(C#N)c(Cl)c1` (some centres unmarked) [PROTAC-66, N-((1r,3r)-3-(3-chloro-4-cyanophenoxy)-2,2,4,4-tetramethylcyclobutyl)-4-(4-((4-(2-(2,5-dioxopyrrolidin-3-yl)-1,3-dioxoisoindolin-5-yl)piperazin-1-yl)methyl)piperidin-1-yl)benzamide], the “AR Dmax” value is “C (C <= 50)” and the DC50 is not below 100 nM.
On the same counts, the results for `Cn1c(-c2ccc(N3CCN(CC4CCN(c5ccc(C(=O)N[C@H]6C(C)(C)[C@H](Oc7ccc(C#N)c(Cl)c7)C6(C)C)cc5)CC4)CC3)cc2)nn(C2CCC(=O)NC2=O)c1=O` (some centres unmarked) [PROTAC-70, N-((1r,3r)-3-(3-chloro-4-cyanophenoxy)-2,2,4,4-tetramethylcyclobutyl)-4-(4-((4-(4-(1-(2,6-dioxopiperidin-3-yl)-4-methyl-5-oxo-4,5-dihydro-1H-1,2,4-triazol-3-yl)phenyl)piperazin-1-yl)methyl)piperidin-1-yl)benzamide] are “A (A > 75)” and less than 1 nM.
On the same counts, the results for `CC1(C)[C@H](NC(=O)c2ccc(N3CCN(CCCCCOc4ccc5c(-n6ccc(=O)[nH]c6=O)cncc5c4)CC3)nc2)C(C)(C)[C@H]1Oc1ccc(C#N)c(Cl)c1` [PROTAC-79, N-((1r,3r)-3-(3-chloro-4-cyanophenoxy)-2,2,4,4-tetramethylcyclobutyl)-6-(4-(5-((4-(2,4-dioxo-3,4-dihydropyrimidin-1(2H)-yl)isoquinolin-7-yl)oxy)pentyl)piperazin-1-yl)nicotinamide] are “C (C <= 50)” and 1 to 10 nM.
On the same counts, the results for `CC1(C)[C@H](NC(=O)c2ccc(N3CCN(CCCCCOc4ccc5ncc(-n6cc(C#N)c(=O)[nH]c6=O)cc5c4)CC3)nc2)C(C)(C)[C@H]1Oc1ccc(C#N)c(Cl)c1` [PROTAC-80, N-((1r,3r)-3-(3-chloro-4-cyanophenoxy)-2,2,4,4-tetramethylcyclobutyl)-6-(4-(5-((3-(5-cyano-2,4-dioxo-3,4-dihydropyrimidin-1(2H)-yl)quinolin-6-yl)oxy)pentyl)piperazin-1-yl)nicotinamide] are “C (C <= 50)” and not below 100 nM.

These data come from US20250313547A1, “CEREBLON LIGANDS AND BIFUNCTIONAL COMPOUNDS COMPRISING THE SAME” (Arvinas Operations, Inc., priority 2017, published 2025).
